# Experimental data from patent publication US12012410B2, “Substituted pyrazolo[1,5-a]pyrazines for spinal muscular atrophy” (REBORNA BIOSCIENCES, INC., priority 2018, dated 2024).
# System: FL-SMN mRNA (SMN transcript containing exons 7 and 8)
# Assay: Live-cell assay to measure changes in FL-SMN mRNA levels (qPCR) after exposure to the compounds
# Assay type: cell-based, human
# Conditions: fibroblasts derived from patients SMA (GM03813); 24 hours incubation
# Method in brief: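 SMA patient fibroblasts (GM03813) in DMEM/10% FBS were treated with compound (0.1% DMSO final) for 24 h. FL-SMN and Δ7 mRNA were measured by RT-qPCR against oligo DNA standard curves and normalised to GAPDH. Values are % of the DMSO control, binned by asterisk from ≥100% to ≥180%.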
row,Structure (SMILES),"Percentage of increase (FL-SMN mRNA standardized against GAPDH, DMSO control set as 100%)"
1,"CN1CCC(c2nc3ccc(-c4ccc5nc(C(F)(F)F)cn5c4)cc3c(=O)[nH]2)CC1 [Example 66, 2-(1-methylpiperidin-4-yl)-6-[2-(trifluoromethyl)imidazo [1,2-a]pyridin-6-yl]quinazolin-4(3H)-one]",* (equal to or higher than 100% but lower than 120%)
2,"Cc1nc2ccc(-c3ccc4nc(C5CCN(C)CC5)[nH]c(=O)c4c3)cn2c1C [Example 67, 6-(2,3-dimethylimidazo[1,2-a]pyridin-6-yl)-2-(1-methylpiperidin-4-yl)quinazolin-4(3H)-one]",** (equal to or higher than 120% but lower than 150%)
3,"CCc1cn2cc(-c3ccc4nc(C5CCN(C)CC5)[nH]c(=O)c4c3)ccc2n1 [Example 68, 6-(2-ethylimidazo[1,2-a]pyridin-6-yl)-2-(1-methylpiperidin-4-yl)quinazolin-4(3H)-one]",* (equal to or higher than 100% but lower than 120%)
4,"Cc1cn2cc(-c3ccc4nc(C5CCN(C)CC5)n(C)c(=O)c4c3)ccc2n1 [Example 69, 3-methyl-6-(2-methylimidazo[1,2-a]pyridin-6-yl)-2-(1-methylpiperidin-4-yl)quinazolin-4(3H)-one]",** (equal to or higher than 120% but lower than 150%)
5,"Cc1cn2cc(-c3ccc4c(c3)c(=O)nc(C3CCN(C)CC3)n4C)ccc2n1 [Example 70, 1-methyl-6-(2-methylimidazo[1,2-a]pyridin-6-yl)-2-(1-methylpiperidin-4-yl)quinazolin-4(1H)-one]",* (equal to or higher than 100% but lower than 120%)
6,"Cc1nc2c(C)cc(-c3ccc4nc(C5CCN(C)CC5)[nH]c(=O)c4c3)cc2o1 [Example 71, 6-(2,4-dimethyl-1,3-benzoxazol-6-yl)-2-(1-methylpiperidin-4-yl)quinazolin-4(3H)-one]",* (equal to or higher than 100% but lower than 120%)
7,"Cc1nc2cc(-c3ccc4nc(C5CCN(C)CC5)[nH]c(=O)c4c3)ccc2o1 [Example 72, 6-(2-methyl-1,3-benzoxazol-5-yl)-2-(1-methylpiperidin-4-yl)quinazolin-4(3H)-one]",* (equal to or higher than 100% but lower than 120%)
8,"Cc1cn2cc(-c3ccc4nc(C5CCN(CC(F)(F)F)CC5)[nH]c(=O)c4c3)ccc2n1 [Example 73, 6-(2-methylimidazo[1,2-a]pyridin-6-yl)-2-[1-(2,2,2-trifluoroethyl)piperidin-4-yl]quinazolin-4(3H)-one]",* (equal to or higher than 100% but lower than 120%)
9,"Cc1cn2cc(-c3ccc4nc(C5CCN(C6CC6)CC5)[nH]c(=O)c4c3)ccc2n1 [Example 74, 2-(1-cyclopropylpiperidin-4-yl)-6-(2-methylimidazo[1,2-a]pyridin-6-yl)quinazolin-4(3H)-one]",** (equal to or higher than 120% but lower than 150%)
10,"Cc1cn2cc(-c3ccc4nc(C5CCN(C)CC5)[nH]c(=O)c4c3)cc(C(F)(F)F)c2n1 [Example 75, 2-(1-methylpiperidin-4-yl)-6-[2-methyl-8-(trifluoromethyl)imidazo [1,2-a]pyridin-6-yl]quinazolin-4(3H)-one]",** (equal to or higher than 120% but lower than 150%)
11,"COc1cnc(-c2nc3ccc(N4CCN(C)CC4)cc3c(=O)[nH]2)cc1C [Example 76, 2-(5-methoxy-4-methylpyridin-2-yl)-6-(4-methylpiperazin-1-yl)quinazolin-4(3H)-one]",* (equal to or higher than 100% but lower than 120%)
12,"CN1CCC(c2nc3ccc(-c4ccc(-c5cnn(C)c5)cc4)cc3c(=O)[nH]2)CC1 [Example 77, 2-(1-methylpiperidin-4-yl)-6-[4-(1-methyl-1H-pyrazol-4-yl)phenyl]quinazolin-4(3H)-one]",* (equal to or higher than 100% but lower than 120%)
13,"Cc1cn2nc(-c3nc4ccc(N5CCN(C)CC5=O)cc4c(=O)[nH]3)cc2c(C)n1 [Example 78, 2-(4,6-dimethylpyrazolo[1,5-a]pyrazin-2-yl)-6-(4-methyl-2-oxopiperazin-1-yl)quinazolin-4(3H)-one]",* (equal to or higher than 100% but lower than 120%)
14,"Cc1cn2nc(-c3nc4ccc(N5CCOCC5)cc4c(=O)[nH]3)cc2c(C)n1 [Example 79, 2-(4,6-dimethylpyrazolo[1,5-a]pyrazin-2-yl)-6-(morpholin-4-yl)quinazolin-4(3H)-one]",* (equal to or higher than 100% but lower than 120%)
15,"Cc1cn2ccc(-c3ccc4ncn(C5CCN(C)CC5)c(=O)c4c3)cc2n1 [Example 80, 6-(2-methylimidazo[1,2-a]pyridin-7-yl)-3-(1-methylpiperidin-4-yl)quinazolin-4(3H)-one]",* (equal to or higher than 100% but lower than 120%)
16,"Cc1cn2cc(-c3ccc4nc(C5CCOCC5)[nH]c(=O)c4c3)ccc2n1 [Example 81, 6-(2-methylimidazo[1,2-a]pyridin-6-yl)-2-(tetrahydro-2H4-pyran-4-yl)quinazolin-4(3H)-one]",* (equal to or higher than 100% but lower than 120%)
17,"COCCN1CCN(c2ccc3nc(-c4cc5c(C)nc(C)cn5n4)[nH]c(=O)c3c2)CC1 [Example 82, 2-(4,6-dimethylpyrazolo[1,5-a]pyrazin-2-yl)-6-[4-(2-methoxyethyl)piperazin-1-yl]quinazolin-4(3H)-one]",** (equal to or higher than 120% but lower than 150%)
18,"Cc1nc2ccc(-c3ccc4nc(C5CCN(C6CC6)CC5)[nH]c(=O)c4c3)cc2o1 [Example 83, 2-(1-cyclopropylpiperidin-4-yl)-6-(2-methyl-1,3-benzoxazol-6-yl)quinazolin-4(3H)-one]",** (equal to or higher than 120% but lower than 150%)
19,"Cc1cn2cc(-c3ccc4nc(C5(C)CCN(C)CC5)[nH]c(=O)c4c3)ccc2n1 [Example 84, 2-(1,4-dimethylpiperidin-4-yl)-6-(2-methylimidazo[1,2-a]pyridin-6-yl)quinazolin-4(3H)-one]",* (equal to or higher than 100% but lower than 120%)
20,"Cc1cn2cc(-c3ccc4nc(C5(F)CCN(C6CC6)CC5)[nH]c(=O)c4c3)cc(F)c2n1 [Example 85, 2-(4-fluoro-1-cyclopropylpiperidin-4-yl)-6-(8-fluoro-2-methylimidazo[1,2-a]pyridin-6-yl)quinazolin-4(3H)-one]",**** (equal to or higher than 180%)
21,"Cc1cn2cc(-c3ccc4nc(C5(F)CCN(C)CC5)[nH]c(=O)c4c3)cc(F)c2n1 [Example 86, 2-(4-fluoro-1-methylpiperidin-4-yl)-6-(8-fluoro-2-methylimidazo[1,2-a]pyridin-6-yl)quinazolin-4(3H)-one]",*** (equal to or higher than 150% but lower than 180%)
22,"COc1ccc(-c2cc(F)c3nc(C4CCN(C)CC4)[nH]c(=O)c3c2)cc1F [Example 87, 8-fluoro-6-(3-fluoro-4-methoxyphenyl)-2-(1-methylpiperidin-4-yl)quinazolin-4(3H7)-one]",**** (equal to or higher than 180%)
23,"Cc1cn2cc(-c3cc(C)c4nc(C5(F)CCN(C)CC5)[nH]c(=O)c4c3)cc(F)c2n1 [Example 89, 6-(8-fluoro-2-methylimidazo[1,2-a]pyridin-6-yl)-2-(4-fluoro-1-methylpiperidin-4-yl)-8-methylquinazolin-4(3H4)-one]",**** (equal to or higher than 180%)
24,"CCN1CCC(F)(c2nc3c(C)cc(-c4cc(F)c5nc(C)cn5c4)cc3c(=O)[nH]2)CC1 [Example 90, 2-(1-ethyl-4-fluoropiperidin-4-yl)-6-(8-fluoro-2-methylimidazo[1,2-a]pyridin-6-yl)-8-methylquinazolin-4(3H4)-one]",**** (equal to or higher than 180%)
25,"Cc1cn2cc(-c3ccc4nc(C5(F)CCN(C(C)C)CC5)[nH]c(=O)c4c3)cc(F)c2n1 [Example 91, 2-(4-fluoro-1-isopropylpiperidin-4-yl)-6-(8-fluoro-2-methylimidazo[1,2-a]pyridin-6-yl)quinazolin-4(3H)-one]",**** (equal to or higher than 180%)
26,"CCN1CCC(F)(c2nc3ccc(-c4cc(F)c5nc(C)cn5c4)cc3c(=O)[nH]2)CC1 [Example 92, 2-(1-Ethyl-4-fluoropiperidin-4-yl)-6-(8-fluoro-2-methylimidazo[1,2-a]pyridin-6-yl)quinazolin-4(3H)-one]",**** (equal to or higher than 180%)
27,"Cc1cn2cc(-c3ccc4nc(C5(F)CCN(CC(F)F)CC5)[nH]c(=O)c4c3)cc(F)c2n1 [Example 93, 2-[1-(2,2-difluoroethyl)-4-fluoropiperidin-4-yl]-6-(8-fluoro-2-methylimidazo[1,2-a]pyridin-6-yl)quinazolin-4(3H)-one]",*** (equal to or higher than 150% but lower than 180%)
